According to publication PMC3183106 (Pharmacological research : the official journal of the …, 2011):
Read-outs that look alike come from different tables or passages of the source.

Key:
[1] = mean ± SEM
[2] = mean ± SEM; remark: listed apart in the source
[3] = cited from earlier work
[4] = human, in vivo
[5] = cited from earlier work; remark: listed apart in the source

CSCCCCNC(=S)SC[C@H](N)C(=O)NCC(=O)O [ERN-CG, ERN-cysteinylglycine]
Percent of metabolite relative to total for respective ITC in the plasma ([1]; 12 hrs after broccoli sprouts, GSTP1 A/A (n=7)): 69.4 ± 1.38% | Percent of metabolite relative to total for respective ITC in the plasma ([1]; 12 hrs after broccoli sprouts, GSTP1 A/G (n=5)): 67.6 ± 1.19% | Percent of metabolite relative to total for respective ITC in the plasma ([1]; 12 hrs after broccoli supplement, GSTP1 A/A (n=7)): 72.9 ± 1.78% | Percent of metabolite relative to total for respective ITC in the plasma ([1]; 12 hrs after broccoli supplement, GSTP1 A/G (n=5)): 75.1 ± 1.44% | Percent of metabolite relative to total metabolites for respective ITC in urine ([2]; first 12 hrs after broccoli sprouts, GSTP1 A/A (n=7)): 0.11 ± 0.01% | Percent of metabolite relative to total metabolites for respective ITC in urine ([2]; first 12 hrs after broccoli sprouts, GSTP1 A/G (n=5)): 0.12 ± 0.04% | Percent of metabolite relative to total metabolites for respective ITC in urine ([2]; first 12 hrs after broccoli supplement, GSTP1 A/A (n=7)): 0.89 ± 0.31% | Percent of metabolite relative to total metabolites for respective ITC in urine ([2]; first 12 hrs after broccoli supplement, GSTP1 A/G (n=5)): 2.00 ± 0.77%

CC(C)=CCC/C(C)=C/C=C/C(C)=C/C=C/C(C)=C/C=C/C=C(C)/C=C/C=C(C)/C=C/C=C(\C)CCC=C(C)C [Lycopene]
Increase in serum concentrations ([3]; heat processed tomato juice): 2–3 fold | Change in serum concentrations ([3]; unprocessed tomato juice): no change

C[S+]([O-])CCCCN=C=S (stereo not shown) [SFN, sulforaphane]
Time by which total metabolites almost completely cleared from the plasma [4]: ≤ 24 h | SFN recovered after consumption ([5]; broccoli powder): 19% | SFN recovered after consumption ([5]; broccoli sprouts): 74%
